Results published in ChEMBL document CHEMBL1132385 (J Med Chem, 1999).

The compounds below were run against Neuronal acetylcholine receptor (assay: Evaluated for its binding affinity towards Nicotinic acetylcholine receptor in rat brain homogenate).
Type: tissue-based

Row | Compound | Ki
1 | CN1[C@@H](CCc2ccccc2)CCC[C@H]1C[C@H](O)c1ccccc1 | 0.235 µM
2 | CN1[C@H](CCc2ccccc2)CCC[C@@H]1CC(=O)c1ccccc1 | 0.11 µM
3 | CN1[C@@H](C[C@@H](O)c2ccccc2)CCC[C@H]1C[C@H](O)c1ccccc1 | 0.3 µM
4 | CN1[C@@H](CC(=O)c2ccccc2)CCC[C@H]1CC(=O)c1ccccc1 | 7.8 µM
5 | CN1[C@@H](CC(=O)c2ccccc2)CCC[C@H]1/C=C/c1ccccc1 | 1.08 µM
6 | CN1[C@H](CCc2ccccc2)CCC[C@@H]1C[C@@H](O)c1ccccc1 [8R-hydroxylobelane] | 0.34 µM

Results, then the compound that gave them:

Row | Ki | Compound
7 | > 10 µM | CN(C)CCC(O)c1ccccc1 (centres undefined)
8 | 2.49 µM | CN1CCCCC1CCc1ccccc1 (centres undefined)
9 | > 10 µM | CN(CCC(=O)c1ccccc1)CCC(=O)c1ccccc1
10 | > 10 µM | CN(CCCc1ccccc1)CCCc1ccccc1
11 | > 10 µM | CN1CCCC[C@H]1C[C@H](O)c1ccccc1
12 | 0.005 µM | CN1[C@@H](CC(=O)c2ccccc2)CCC[C@H]1C[C@H](Cl)c1ccccc1
13 | 2.03 µM | C[N+]1(C)[C@@H](CC(=O)c2ccccc2)CCC[C@H]1C[C@H](O)c1ccccc1
14 | > 10 µM | CN1[C@@H](CCc2ccccc2)CCC[C@H]1CCc1ccccc1 [LOBELANE]
